Numbering of substitutions follows the chain as printed.
Experiments:
rM1 = biological target: T1, rM1 (Rattus norvegicus, UniProt P08482); test: rat M1 functional assay; type: cell-based; conditions: read-out: rM1 IC50, printed as rM1-rM4
T1 sequence (P08482 1-460): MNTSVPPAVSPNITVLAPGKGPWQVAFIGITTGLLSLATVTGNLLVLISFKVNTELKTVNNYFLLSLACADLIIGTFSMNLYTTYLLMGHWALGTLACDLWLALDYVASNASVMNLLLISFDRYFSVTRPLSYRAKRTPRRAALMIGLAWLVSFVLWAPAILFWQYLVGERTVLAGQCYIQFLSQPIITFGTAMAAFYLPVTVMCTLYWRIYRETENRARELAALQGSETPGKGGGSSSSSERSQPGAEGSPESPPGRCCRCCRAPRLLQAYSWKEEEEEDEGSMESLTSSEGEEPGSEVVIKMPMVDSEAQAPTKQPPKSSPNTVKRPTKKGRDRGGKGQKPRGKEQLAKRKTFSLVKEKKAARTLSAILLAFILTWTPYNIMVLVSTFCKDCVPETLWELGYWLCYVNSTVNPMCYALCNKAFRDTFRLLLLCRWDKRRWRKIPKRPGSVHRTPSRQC

rM2 = biological target: T2, rM2 (Rattus norvegicus, UniProt P10980); test: rat M2 functional assay; type: cell-based; conditions: read-out: rM2 IC50, printed as rM1-rM4
T2 sequence (P10980 1-466): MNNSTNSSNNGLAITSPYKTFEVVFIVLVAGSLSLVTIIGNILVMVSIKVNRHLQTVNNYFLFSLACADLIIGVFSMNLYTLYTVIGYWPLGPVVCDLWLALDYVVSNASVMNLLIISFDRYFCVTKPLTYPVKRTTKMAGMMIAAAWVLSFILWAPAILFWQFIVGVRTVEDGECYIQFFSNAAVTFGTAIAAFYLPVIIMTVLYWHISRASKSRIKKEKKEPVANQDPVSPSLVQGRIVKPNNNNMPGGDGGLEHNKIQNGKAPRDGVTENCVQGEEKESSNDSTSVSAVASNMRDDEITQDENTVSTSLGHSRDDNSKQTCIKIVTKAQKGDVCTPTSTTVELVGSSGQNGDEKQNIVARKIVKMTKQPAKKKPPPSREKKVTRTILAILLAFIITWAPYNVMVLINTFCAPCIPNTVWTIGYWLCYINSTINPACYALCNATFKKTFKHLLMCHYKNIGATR

rM3 = rM3 (Rattus norvegicus, UniProt P08483); test: rat M3 functional assay; type: cell-based; conditions: read-out: rM3 IC50, printed as rM1-rM4
rM4 = biological target: T3, rM4 (Rattus norvegicus, UniProt P08485); test: rat M4 functional assay; type: cell-based; conditions: read-out: rM4 IC50, printed as rM1-rM4
T3 sequence (P08485 1-478): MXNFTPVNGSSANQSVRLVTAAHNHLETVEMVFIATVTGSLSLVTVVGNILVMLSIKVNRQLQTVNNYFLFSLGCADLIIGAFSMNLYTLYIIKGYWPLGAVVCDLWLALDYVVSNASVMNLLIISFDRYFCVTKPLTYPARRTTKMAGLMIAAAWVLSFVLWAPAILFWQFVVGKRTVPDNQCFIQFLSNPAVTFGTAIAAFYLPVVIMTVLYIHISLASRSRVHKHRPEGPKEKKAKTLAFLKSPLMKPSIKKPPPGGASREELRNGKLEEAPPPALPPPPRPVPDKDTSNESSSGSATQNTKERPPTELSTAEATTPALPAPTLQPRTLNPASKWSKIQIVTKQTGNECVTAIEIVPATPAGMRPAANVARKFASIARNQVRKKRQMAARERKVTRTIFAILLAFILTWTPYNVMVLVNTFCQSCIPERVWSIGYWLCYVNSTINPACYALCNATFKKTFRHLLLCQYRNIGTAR

[1] = test system: 68 GPCRs, ion channels and transporters; test: Eurofins radioligand binding panel; conditions: 10 μM, 68 targets
human M1 = biological target: T4, human M1 (Homo sapiens, UniProt P11229); conditions: read-out: hM1 IC50; printed as hM1-M4; cited from earlier work
T4 sequence (P11229 1-460): T1 sequence (P08482 1-460) with V5A, S254T, S309P, K320R, G337A, V413I

human M2 = biological target: T5, human M2 (Homo sapiens, UniProt P08172); conditions: read-out: hM2 IC50; printed as hM1-M4; cited from earlier work
T5 sequence (P08172 1-466): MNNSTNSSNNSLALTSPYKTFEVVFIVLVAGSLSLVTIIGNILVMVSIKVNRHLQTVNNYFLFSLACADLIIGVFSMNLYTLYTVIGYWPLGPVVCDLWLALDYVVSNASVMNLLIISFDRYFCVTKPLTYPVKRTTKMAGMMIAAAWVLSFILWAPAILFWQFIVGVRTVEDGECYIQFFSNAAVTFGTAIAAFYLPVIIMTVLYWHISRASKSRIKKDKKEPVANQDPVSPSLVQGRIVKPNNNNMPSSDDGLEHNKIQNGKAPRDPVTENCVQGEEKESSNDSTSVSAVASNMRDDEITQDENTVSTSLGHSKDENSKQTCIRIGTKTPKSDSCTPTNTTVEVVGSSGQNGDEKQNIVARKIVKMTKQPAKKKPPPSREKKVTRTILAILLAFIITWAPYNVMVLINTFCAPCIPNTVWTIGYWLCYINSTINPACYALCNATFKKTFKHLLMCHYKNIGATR

human M3 = human M3 (Homo sapiens, UniProt P20309); conditions: read-out: hM3 IC50; printed as hM1-M4; cited from earlier work
human M4 = biological target: T6, human M4 (Homo sapiens, UniProt P08173); conditions: read-out: hM4 IC50; printed as hM1-M4; cited from earlier work
T6 sequence (P08173 1-479): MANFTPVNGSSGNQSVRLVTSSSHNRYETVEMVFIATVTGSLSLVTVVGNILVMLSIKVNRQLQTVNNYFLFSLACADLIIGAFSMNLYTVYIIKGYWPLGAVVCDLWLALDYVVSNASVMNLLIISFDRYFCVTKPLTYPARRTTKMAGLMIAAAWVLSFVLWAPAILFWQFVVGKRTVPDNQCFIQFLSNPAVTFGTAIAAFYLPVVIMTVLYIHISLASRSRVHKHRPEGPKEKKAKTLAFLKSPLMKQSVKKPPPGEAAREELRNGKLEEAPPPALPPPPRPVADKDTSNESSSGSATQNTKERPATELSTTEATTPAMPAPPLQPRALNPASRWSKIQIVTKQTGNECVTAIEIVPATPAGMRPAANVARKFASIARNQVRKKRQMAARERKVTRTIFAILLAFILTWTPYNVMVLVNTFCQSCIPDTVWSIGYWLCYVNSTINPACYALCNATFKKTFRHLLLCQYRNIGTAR

Sequence of rM3 (P08483 whole entry): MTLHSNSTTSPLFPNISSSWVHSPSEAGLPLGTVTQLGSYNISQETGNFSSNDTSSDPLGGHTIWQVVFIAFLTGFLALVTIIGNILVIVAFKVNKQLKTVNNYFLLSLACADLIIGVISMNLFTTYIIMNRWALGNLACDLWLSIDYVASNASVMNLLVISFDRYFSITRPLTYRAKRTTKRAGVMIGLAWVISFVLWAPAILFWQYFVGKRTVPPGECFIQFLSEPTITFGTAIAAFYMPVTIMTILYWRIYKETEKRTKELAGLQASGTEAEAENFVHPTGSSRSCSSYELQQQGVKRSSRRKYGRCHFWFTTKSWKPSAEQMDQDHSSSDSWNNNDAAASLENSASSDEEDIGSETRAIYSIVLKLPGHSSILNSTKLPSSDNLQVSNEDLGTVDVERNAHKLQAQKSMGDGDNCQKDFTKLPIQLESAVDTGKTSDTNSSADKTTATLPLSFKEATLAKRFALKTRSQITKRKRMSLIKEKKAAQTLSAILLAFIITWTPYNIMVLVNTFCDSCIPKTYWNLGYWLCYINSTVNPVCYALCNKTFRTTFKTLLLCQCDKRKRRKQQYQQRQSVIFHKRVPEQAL
Sequence of human M3 (P20309 whole entry): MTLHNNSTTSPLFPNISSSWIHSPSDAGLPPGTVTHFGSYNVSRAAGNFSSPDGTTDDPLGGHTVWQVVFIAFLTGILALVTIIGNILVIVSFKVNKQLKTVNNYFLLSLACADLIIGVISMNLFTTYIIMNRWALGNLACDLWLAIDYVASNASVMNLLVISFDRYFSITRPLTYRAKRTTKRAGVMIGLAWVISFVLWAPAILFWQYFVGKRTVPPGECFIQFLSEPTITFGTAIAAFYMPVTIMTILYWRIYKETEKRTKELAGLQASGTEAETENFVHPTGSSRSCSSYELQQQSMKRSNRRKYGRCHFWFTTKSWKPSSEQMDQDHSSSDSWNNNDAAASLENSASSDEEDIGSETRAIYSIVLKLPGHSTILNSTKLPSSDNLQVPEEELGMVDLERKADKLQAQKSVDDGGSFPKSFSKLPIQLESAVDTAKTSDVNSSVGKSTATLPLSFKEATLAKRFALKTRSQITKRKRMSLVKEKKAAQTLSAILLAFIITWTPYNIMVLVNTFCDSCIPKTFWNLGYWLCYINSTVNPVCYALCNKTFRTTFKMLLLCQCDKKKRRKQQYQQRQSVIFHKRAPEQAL

Work on `CC(=O)c1cccc(OCc2cc(C(=O)N(C)[C@@H](C)c3ccccn3)no2)c1` [(S)-16] yielded an IC50 (rM1) of over 30 µM, an IC50 (rM2) of over 30 µM and an IC50 (rM3) of over 30 µM. The IC50 (rM4) was over 30 µM and the “inhibition in radioligand binding panel” value [1] was at most 50%.
In the case of `O=C(c1ccc(F)c(F)c1)N1CCN2C(=O)c3ccccc3[C@@]12c1ccc(Cl)cc1` [compound 5], the IC50 (human M1) is listed as over 30 µM, the IC50 (human M2) is listed as over 30 µM and the IC50 (human M3) is listed as over 30 µM. The IC50 (human M4) was over 30 µM.

Reference: publication PMC4116439 (ChemMedChem, 2014)
